Tested on: MSCs
Assay: Whole genome expression analysis (Illumina microarray) of treated MSCs
Type: cell-based, Human
Procedure: MSCs were seeded in T25 flasks at 5000 cells/cm^2 and allowed to attach overnight in proliferation medium. […] After 48 hours, RNA was isolated as described above. From 500 ng of RNA, cRNA was synthesized using the Illumina TotalPrep RNA amplification Kit (Ambion), according to the manufacturer's protocol and the quality of RNA and cRNA was verified on a Bioanalyzer 2100 (Agilent). Microarrays were performed using Illumina HT-12 v4 expression Beadchips, according to the manufacturer's protocol. Briefly, 750 ng of cRNA was hybridized on the array overnight after which the array was washed and blocked. Then, by addition of streptavidin Cy-3 a fluorescent signal was developed. Arrays were scanned on an Illumina iScan reader and raw intensity values were background corrected in GenomeStudio (Illumina). Further data processing and statistical testing were performed with R and Bioconductor statistical software (www.bioconductor.org), using package lumi. Raw intensity values were transformed using variance stabilization and a quantile normalization was performed. A linear modelling approach with empirical Bayesian methods, as implemented in Limma package (54), was applied for differential expression analysis of the resulting probe-level expression values. A gene list, containing only those genes with an absolute 1.5-fold change between different treatments, was uploaded to Ingenuity Pathway Analysis (IPA) software and used for core analysis. Pathways or networks with a p-value of 0.05 were considered statistically significant.

## c1cnc2c(c1)ccc1cccnc12 [PHE, 1, 10-phenanthroline]
ProbeID ILMN_1759598
  logFC(D142_PHE - D142_BAS) DLX5: -2,28
ProbeID ILMN_1761941
  logFC(D142_PHE - D142_BAS) C4orf18: -2,15
ProbeID ILMN_1764090
  logFC(D142_PHE - D142_BAS) AK3L1: 3,40
ProbeID ILMN_1764177
  logFC(D142_PHE - D142_BAS) JARID2: 2,12
ProbeID ILMN_1764764
  logFC(D142_PHE - D142_BAS) MUM1: -2,05
ProbeID ILMN_1765557, PHE vs BAS
  logFC(D142_PHE - D142_BAS) OLFML2B: -3,04
ProbeID ILMN_1765701, PHE vs BAS
  logFC(D142_PHE - D142_BAS) LOC399942: -2,98
ProbeID ILMN_1765796
  logFC(D142_PHE - D142_BAS) ENO2: 4,72
ProbeID ILMN_1765990, PHE vs BAS
  logFC(D142_PHE - D142_BAS) KCNK2: -2,82
ProbeID ILMN_1767556
  logFC(D142_PHE - D142_BAS) C10orf10: 3,71
ProbeID ILMN_1768973
  logFC(D142_PHE - D142_BAS) HIST2H2AC: 3,39
ProbeID ILMN_1769158
  logFC(D142_PHE - D142_BAS) ISOC2: -2,08
ProbeID ILMN_1770228
  logFC(D142_PHE - D142_BAS) KRT34: 2,77
ProbeID ILMN_1770290, PHE vs BAS
  logFC(D142_PHE - D142_BAS) CNN2: -3,30
ProbeID ILMN_1772612, PHE vs BAS
  logFC(D142_PHE - D142_BAS) ANGPTL2: -2,93
ProbeID ILMN_1772644
  logFC(D142_PHE - D142_BAS) EML3: -2,23
ProbeID ILMN_1772876
  logFC(D142_PHE - D142_BAS) ZNF395: 3,66
ProbeID ILMN_1772910, PHE vs BAS
  logFC(D142_PHE - D142_BAS) GAS1: -3,75
ProbeID ILMN_1773407
  logFC(D142_PHE - D142_BAS) C16orf72: 2,40
ProbeID ILMN_1774390
  logFC(D142_PHE - D142_BAS) LOC441054: 2,68
ProbeID ILMN_1774602, PHE vs BAS
  logFC(D142_PHE - D142_BAS) FBLN2: -2,40
ProbeID ILMN_1775380
  logFC(D142_PHE - D142_BAS) SMOX: 2,29
ProbeID ILMN_1775708
  logFC(D142_PHE - D142_BAS) SLC2A3: 3,23
ProbeID ILMN_1775743
  logFC(D142_PHE - D142_BAS) BTG1: 2,36
ProbeID ILMN_1776953
  logFC(D142_PHE - D142_BAS) MYL9: -2,25
ProbeID ILMN_1777325
  logFC(D142_PHE - D142_BAS) STAT1: -2,01
ProbeID ILMN_1777499
  logFC(D142_PHE - D142_BAS) LOC731007: 2,46
ProbeID ILMN_1777513
  logFC(D142_PHE - D142_BAS) KCTD11: 3,02
ProbeID ILMN_1779258
  logFC(D142_PHE - D142_BAS) LOC644774: 3,09
ProbeID ILMN_1784294
  logFC(D142_PHE - D142_BAS) CPA4: 5,44
ProbeID ILMN_1784300
  logFC(D142_PHE - D142_BAS) TUBA4A: 2,80
ProbeID ILMN_1784948, PHE vs BAS
  logFC(D142_PHE - D142_BAS) SPOCD1: -3,46
ProbeID ILMN_1785891, PHE vs BAS
  logFC(D142_PHE - D142_BAS) PRKD1: -2,51
ProbeID ILMN_1786065
  logFC(D142_PHE - D142_BAS) UHRF1: -2,25
ProbeID ILMN_1786612, PHE vs BAS
  logFC(D142_PHE - D142_BAS) PSME2: -2,64
ProbeID ILMN_1787981
  logFC(D142_PHE - D142_BAS) MFAP2: -2,29
ProbeID ILMN_1789507, PHE vs BAS
  logFC(D142_PHE - D142_BAS) COL11A1: -3,53
ProbeID ILMN_1789702
  logFC(D142_PHE - D142_BAS) GBE1: 2,68
ProbeID ILMN_1789991
  logFC(D142_PHE - D142_BAS) Mar-04: 2,06
ProbeID ILMN_1790338, PHE vs BAS
  logFC(D142_PHE - D142_BAS) PRRX2: -2,93
ProbeID ILMN_1790461
  logFC(D142_PHE - D142_BAS) C6orf125: -2,25
ProbeID ILMN_1790529, PHE vs BAS
  logFC(D142_PHE - D142_BAS) LUM: -3,46
ProbeID ILMN_1790689
  logFC(D142_PHE - D142_BAS) CRISPLD2: -2,32
ProbeID ILMN_1790778
  logFC(D142_PHE - D142_BAS) PNMA2: 2,46
ProbeID ILMN_1791447, PHE vs BAS
  logFC(D142_PHE - D142_BAS) CXCL12: -3,48
ProbeID ILMN_1792356
  logFC(D142_PHE - D142_BAS) DPYSL4: 3,91
ProbeID ILMN_1792455
  logFC(D142_PHE - D142_BAS) TMEM158: 3,06
ProbeID ILMN_1792689
  logFC(D142_PHE - D142_BAS) HIST1H2AC: 2,10
ProbeID ILMN_1794017
  logFC(D142_PHE - D142_BAS) SERTAD1: 2,93
ProbeID ILMN_1794132
  logFC(D142_PHE - D142_BAS) NDUFS8: -2,07
ProbeID ILMN_1794501, PHE vs BAS
  logFC(D142_PHE - D142_BAS) HAS3: -2,42
ProbeID ILMN_1794863
  logFC(D142_PHE - D142_BAS) CAMK2N1: 2,88
ProbeID ILMN_1795963
  logFC(D142_PHE - D142_BAS) OKL38: 2,72
ProbeID ILMN_1796179
  logFC(D142_PHE - D142_BAS) HIST1H2BK: 2,23
ProbeID ILMN_1796471
  logFC(D142_PHE - D142_BAS) GDF5: -2,25
ProbeID ILMN_1797372
  logFC(D142_PHE - D142_BAS) C3orf58: 2,45
ProbeID ILMN_1797728
  logFC(D142_PHE - D142_BAS) HMGCS1: -2,20
ProbeID ILMN_1798249
  logFC(D142_PHE - D142_BAS) AK3L1: 3,18
ProbeID ILMN_1798360
  logFC(D142_PHE - D142_BAS) CXCR7: 2,96
ProbeID ILMN_1798654
  logFC(D142_PHE - D142_BAS) MCM6: -2,31
ProbeID ILMN_1800091
  logFC(D142_PHE - D142_BAS) RARRES1: -2,22
ProbeID ILMN_1800512
  logFC(D142_PHE - D142_BAS) HMOX1: 2,82
ProbeID ILMN_1800697, PHE vs BAS
  logFC(D142_PHE - D142_BAS) LDB2: -2,38
ProbeID ILMN_1801077
  logFC(D142_PHE - D142_BAS) PLIN2: 3,49
ProbeID ILMN_1801156
  logFC(D142_PHE - D142_BAS) RLF: 2,05
ProbeID ILMN_1801313
  logFC(D142_PHE - D142_BAS) SIAH2: 2,15
ProbeID ILMN_1801610
  logFC(D142_PHE - D142_BAS) METRNL: 2,03
ProbeID ILMN_1801939, PHE vs BAS
  logFC(D142_PHE - D142_BAS) CCNB2: -2,66
ProbeID ILMN_1802654
  logFC(D142_PHE - D142_BAS) GLT8D2: -2,05
ProbeID ILMN_1803647
  logFC(D142_PHE - D142_BAS) FAM162A: 2,36
ProbeID ILMN_1803825, PHE vs BAS
  logFC(D142_PHE - D142_BAS) CXCL12: -2,38
ProbeID ILMN_1803882
  logFC(D142_PHE - D142_BAS) VEGFA: 4,07
ProbeID ILMN_1804822
  logFC(D142_PHE - D142_BAS) SRXN1: 2,32
ProbeID ILMN_1805561, PHE vs BAS
  logFC(D142_PHE - D142_BAS) SLC14A1: -2,57
ProbeID ILMN_1805737
  logFC(D142_PHE - D142_BAS) PFKP: 2,32
ProbeID ILMN_1806037
  logFC(D142_PHE - D142_BAS) TK1: -2,14
ProbeID ILMN_1806349
  logFC(D142_PHE - D142_BAS) SLC6A8: 2,45
ProbeID ILMN_1808657, PHE vs BAS
  logFC(D142_PHE - D142_BAS) FMO3: -2,85
ProbeID ILMN_1809813
  logFC(D142_PHE - D142_BAS) PGF: 3,28
ProbeID ILMN_1809931
  logFC(D142_PHE - D142_BAS) NDRG1: 4,06
ProbeID ILMN_1810560
  logFC(D142_PHE - D142_BAS) P8: 2,09
ProbeID ILMN_1810628
  logFC(D142_PHE - D142_BAS) KIAA0367: -2,12
ProbeID ILMN_1810836, PHE vs BAS
  logFC(D142_PHE - D142_BAS) PDE5A: -3,04
ProbeID ILMN_1811909
  logFC(D142_PHE - D142_BAS) LOC402221: -2,18
ProbeID ILMN_1812091
  logFC(D142_PHE - D142_BAS) FAM20A: -2,34
ProbeID ILMN_1813314
  logFC(D142_PHE - D142_BAS) HIST1H2BK: 2,41
ProbeID ILMN_1813704, PHE vs BAS
  logFC(D142_PHE - D142_BAS) KIAA1199: -4,06
ProbeID ILMN_1814998
  logFC(D142_PHE - D142_BAS) FKSG30: -2,20
ProbeID ILMN_1815023
  logFC(D142_PHE - D142_BAS) PIM1: 2,29
ProbeID ILMN_1815121
  logFC(D142_PHE - D142_BAS) PLAGL1: 2,24
ProbeID ILMN_1815626
  logFC(D142_PHE - D142_BAS) DHCR7: -2,12
ProbeID ILMN_1815859
  logFC(D142_PHE - D142_BAS) ERCC2: -2,17
ProbeID ILMN_1816244, no gene name printed
  logFC(D142_PHE - D142_BAS): 2,02
